Measured values published in US9890133B2 (priority 2011, dated 2018).
Converted amounts (≈) assume the structure as drawn.

Assay: in vitro
Conditions: human

Row | Structure (SMILES) | CC50 | CC50 (Picorana CC50)
1 | Cc1ccc2c(Cl)c(C(=O)NC34C(=O)c5c(N)cccc5C3(O)Oc3cc(C(C)C)ccc34)sc2c1 (stereo not drawn) [Example 270, N-(1-Amino-4b-hydroxy-7-isopropyl-10-oxo-9b,10-dihydro-4bH-indeno[1,2-b]benzofuran-9b-yl)-3-chloro-6-methylbenzo[b]thiophene-2-carboxamide] | 5.93 µg/mL (≈ 11.4 µM) | 6.57 µg/mL (≈ 12.7 µM)
2 | CC(C)c1ccc2c(c1)OC1(O)c3ccccc3C(=O)C21N (stereo not drawn) [Example 65, 9b-Amino-4b-hydroxy-7-isopropyl-4b,9b-dihydro-5-oxa-indeno[2,1-a]inden-10-one] | – | 18.2 µg/mL (≈ 61.6 µM)
3 | CC(C)c1ccc2c(c1)OC1(O)c3cccc(N)c3C(=O)C21NC(=O)c1ccc2nccnc2c1 (stereo not drawn) [Example 277, N-(1-Amino-4b-hydroxy-7-isopropyl-10-oxo-9b,10-dihydro-4bH-indeno[1,2-b]benzofuran-9b-yl)quinoxaline-6-carboxamide] | > 10 µg/mL | –
4 | Cc1c(C(=O)NC23C(=O)c4c(N)cccc4C2(O)Oc2cc(C(C)C)ccc23)cnc2ccnn12 (stereo not drawn) [Example 289, N-(1-Amino-4b-hydroxy-7-isopropyl-10-oxo-9b,10-dihydro-4bH-indeno[1,2-b]benzofuran-9b-yl)-7-methylpyrazolo[1,5-a]pyrimidine-6-carboxamide] | > 10 µg/mL | –
5 | CC(C)c1ccc2c(c1)OC1(O)c3ccccc3C(=O)C21NC(=O)c1ccncn1 (stereo not drawn) [Example 219, N-(4b-Hydroxy-7-isopropyl-10-oxo-9b,10-dihydro-4bH-indeno[1,2-b]benzofuran-9b-yl)pyrimidine-4-carboxamide] | > 10 µg/mL | 45.1 µg/mL (≈ 112 µM)
6 | CCNC(=O)NC12C(=O)c3c(N)cccc3C1(O)Oc1cc(C(C)C)ccc12 (stereo not drawn) [Example 173] | > 10 µg/mL | –
7 | CC(C)c1ccc2c(c1)OC1(O)c3ccccc3C(=O)C21NC(=O)c1cc(-c2ccccc2)n[nH]1 (stereo not drawn) [Example 229, N-(4b-hydroxy-7-isopropyl-10-oxo-9b,10-dihydro-4bH-indeno[1,2-b]benzofuran-9b-yl)-3-phenyl-1H-pyrazole-5-carboxamide] | 4.51 µg/mL (≈ 9.69 µM) | 8.63 µg/mL (≈ 18.5 µM)
8 | C=C1c2ccccc2C2(OC)Oc3cc(C(C)C)ccc3C12O (stereo not drawn) [Example 129, 7-Isopropyl-4b-methoxy-10-methylene-9b,10-dihydro-4bH-indeno[1,2-b]benzofuran-9b-ol] | – | 6.79 µg/mL (≈ 22 µM)
9 | CC(C)c1ccc2c(c1)OC1(O)c3cccc(N)c3C(=O)C21NC(=O)c1c2ccccc2nc2ccccc12 (stereo not drawn) [Example 241, N-(1-Amino-4b-hydroxy-7-isopropyl-10-oxo-9b,10-dihydro-4bH-benzo[d]indeno[1,2-b]furan-9b-yl)acridine-9-carboxamide] | > 10 µg/mL | 7.86 µg/mL (≈ 15.2 µM)
10 | O=C1c2ccccc2C2(O)Oc3ccccc3C12NS(=O)(=O)C(F)(F)F (stereo not drawn) [Example 178, 1,1,1-Trifluoro-N-(4b-hydroxy-10-oxo-9b,10-dihydro-4bH-benzo[d]indeno[1,2-b]furan-9b-yl)methanesulfonamide] | > 10 µg/mL | –
11 | CO/N=C1/c2ccccc2C2(O)Oc3cc(C(C)C)ccc3C12O (stereo not drawn) [Example 88, 4b,9b-Dihydroxy-7-isopropyl-4bH-indeno[1,2-b]benzofuran-10(9bH)-one O-methyl oxime] | – | 8.16 µg/mL (≈ 25.1 µM)
12 | CCCCC(=O)OC12Oc3cc(C(C)C)ccc3C1(NC(C)=O)C(=O)c1ccccc12 (stereo not drawn) [Example 112, 9b-Acetamido-7-isopropyl-10-oxo-9b,10-dihydro-4bH-indeno[1,2-b]benzofuran-4b-yl pentanoate] | – | 42 µg/mL (≈ 99.6 µM)
13 | CC(C)c1ccc2c(c1)OC1(C)c3ccccc3C(=O)C21O (stereo not drawn) [Example 134, 9b-Hydroxy-7-isopropyl-4b-methyl-4bH-indeno[1,2-b]benzofuran-10(9bH)-one] | – | 6.69 µg/mL (≈ 22.7 µM)
14 | CC(=O)Nc1ccc([N+](=O)[O-])c2c1C(=O)C1(N)c3ccc(C(C)C)cc3OC21O (stereo not drawn) [Example 109, N-(9b-Amino-4b-hydroxy-7-isopropyl-4-nitro-10-oxo-9b,10-dihydro-4bH-5-oxa-indeno[2,1-a]inden-1-yl)-acetamide] | – | > 50 µg/mL
